Literature values as cited in patent publication US8691283B2, “Standardized bee venom preparation” (priority 2000, dated 2014).

System: hypophyseal-adrenal system
Details: melittin stimulates the hypophyseal-adrenal system and produces cortisone

CC[C@H](C)[C@H](NC(=O)CN)C(=O)NCC(=O)N[C@@H](C)C(=O)N[C@H](C(=O)N[C@@H](CC(C)C)C(=O)N[C@@H](CCCCN)C(=O)N[C@H](C(=O)N[C@@H](CC(C)C)C(=O)N[C@H](C(=O)N[C@H](C(=O)NCC(=O)N[C@@H](CC(C)C)C(=O)N1CCC[C@H]1C(=O)N[C@@H](C)C(=O)N[C@@H](CC(C)C)C(=O)N[C@H](C(=O)N[C@@H](CO)C(=O)N[C@@H](Cc1c[nH]c2ccccc12)C(=O)N[C@H](C(=O)N[C@@H](CCCCN)C(=O)N[C@@H](CCCNC(=N)N)C(=O)N[C@@H](CCCCN)C(=O)N[C@@H](CCCNC(=N)N)C(=O)N[C@@H](CCC(N)=O)C(=O)N[C@@H](CCC(N)=O)C(N)=O)[C@@H](C)CC)[C@@H](C)CC)[C@@H](C)O)[C@@H](C)O)C(C)C)C(C)C [melittin, Melittin]
potency relative to hydrocortisone: 100 times
